Data taken from publication PMC8605023 (Nature Communications, 2021).
Peptide text beside a SMILES is read from it.

Experiments:
Assay in all cases: biochemical
Format in all cases: binding
[1] = target: T1, NTF2 domain of G3BP2 (Homo sapiens, UniProt Q9UN86)
T1 construct: made in house; host or cells: E. coli BL21-Gold(DE3)
T1 sequence (Q9UN86 11-133 limits assumed): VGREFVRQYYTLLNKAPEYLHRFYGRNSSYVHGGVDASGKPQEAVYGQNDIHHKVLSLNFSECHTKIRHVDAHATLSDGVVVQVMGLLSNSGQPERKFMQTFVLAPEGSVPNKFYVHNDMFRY

[2] = target: T2, NTF2 domain of G3BP1 (Homo sapiens, UniProt Q13283)
T2 construct: made in house; host or cells: E. coli BL21-Gold(DE3)
T2 sequence (Q13283 11-133 limits assumed): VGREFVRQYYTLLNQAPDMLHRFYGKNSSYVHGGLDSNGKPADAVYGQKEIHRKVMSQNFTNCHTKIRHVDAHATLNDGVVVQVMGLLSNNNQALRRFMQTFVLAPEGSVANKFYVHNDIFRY

[3] = target: T3, AP2M1 (Homo sapiens, UniProt Q96CW1)
T3 construct: His-GST (cleaved yes); made in house; host or cells: E. coli BL21-Gold(DE3)
T3 sequence (Q96CW1 160-435 limits assumed): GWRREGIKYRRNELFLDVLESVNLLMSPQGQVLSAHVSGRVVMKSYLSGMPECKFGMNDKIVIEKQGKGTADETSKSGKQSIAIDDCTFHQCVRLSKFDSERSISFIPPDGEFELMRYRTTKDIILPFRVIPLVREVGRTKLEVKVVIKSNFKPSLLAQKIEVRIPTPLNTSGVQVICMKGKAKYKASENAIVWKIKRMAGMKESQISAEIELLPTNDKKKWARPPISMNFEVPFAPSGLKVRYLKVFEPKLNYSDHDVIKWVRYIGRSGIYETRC

[4] = target: T4, MAP1LC3C (Homo sapiens, UniProt Q9BXW4)
T4 construct: His-GST (cleaved yes); made in house; host or cells: E. coli BL21-Gold(DE3)
T4 sequence (Q9BXW4 1-126 limits assumed): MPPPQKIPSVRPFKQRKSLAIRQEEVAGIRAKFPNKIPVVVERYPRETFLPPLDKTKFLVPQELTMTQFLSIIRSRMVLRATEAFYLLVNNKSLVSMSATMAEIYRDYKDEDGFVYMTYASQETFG

[5] = target: T5, USP7 (Homo sapiens, UniProt Q93009)
T5 construct: His-GST (cleaved yes); made in house; host or cells: E. coli BL21-Gold(DE3)
T5 sequence (Q93009 63-205 limits assumed): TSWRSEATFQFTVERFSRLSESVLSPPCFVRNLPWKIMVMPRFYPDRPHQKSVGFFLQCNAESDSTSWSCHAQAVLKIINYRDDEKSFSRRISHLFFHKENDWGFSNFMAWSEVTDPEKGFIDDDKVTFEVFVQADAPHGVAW

SMILES | IC50 [1] [µM] | Ki [2] [µM] | Kd [1] [µM] | IC50 [2] [µM] | other results
CC[C@H](C)[C@H](NC(=O)CNC(=O)[C@H](CO)NC(=O)[C@H](C)NC(=O)[C@H](CC(C)C)NC(=O)[C@H](C)NC(=O)[C@H](CC(=O)O)NC(C)=O)C(=O)N[C@H](C(=O)N[C@@H](Cc1ccccc1)C(=O)NCC(=O)N[C@@H](CC(=O)O)C(=O)N[C@@H](Cc1ccccc1)C(=O)N[C@@H](CC(=O)O)C(=O)N[C@@H](CC(=O)O)C(=O)N[C@@H](Cc1ccc(O)cc1)C(N)=O)[C@@H](C)O [NSP3 1796-1809 SFV] | 11 | – | – | – | –
CC(=O)N[C@@H](CC(N)=O)C(=O)N[C@@H](CC(C)C)C(=O)N[C@@H](CCC(N)=O)C(=O)N[C@@H](Cc1ccccc1)C(=O)NCC(=O)N[C@@H](C)C(=O)N[C@@H](CC(C)C)C(=O)N[C@@H](CCC(N)=O)C(=O)N[C@@H](Cc1ccccc1)C(=O)NCC(=O)N[C@@H](CO)C(=O)N[C@@H](CCC(=O)O)C(=O)N1CCC[C@H]1C(=O)N[C@H](C(=O)N[C@@H](Cc1ccc(O)cc1)C(=O)O)C(C)C [UBAP2L 515-528 Human] (Ac-NLQFGALQFGSEPVY-OH) | – | 34 | 34 | – | –
CC(=O)N[C@@H](CCC(N)=O)C(=O)NCC(=O)N[C@@H](CCCCN)C(=O)N1CCC[C@H]1C(=O)N[C@@H](CC(C)C)C(=O)N[C@@H](CCC(=O)O)C(=O)N[C@@H](Cc1ccccc1)C(=O)NCC(=O)N[C@@H](C)C(=O)N[C@H](C(=O)N[C@@H](CO)C(=O)N[C@@H](C)C(=O)N[C@@H](C)C(=O)N[C@@H](CC(C)C)C(=O)N[C@@H](CCC(N)=O)C(=O)N[C@@H](Cc1ccc(O)cc1)C(N)=O)[C@@H](C)O [NSP3 956-971 Sars-CoV2] | – | – | 35 ± 13 | – | Ki [1]: 35 µM
CC[C@H](C)[C@H](NC(=O)[C@H](Cc1ccccc1)NC(=O)[C@H](CC(N)=O)NC(=O)[C@H](Cc1ccc(O)cc1)NC(=O)[C@@H]1CCCN1C(=O)CNC(=O)[C@H](CCC(N)=O)NC(=O)[C@H](CCSC)NC(=O)[C@H](CCC(N)=O)NC(=O)[C@H](C)NC(C)=O)C(=O)N[C@@H](CCC(N)=O)C(=O)N[C@@H](CC(=O)O)C(=O)N[C@@H](CO)C(=O)N[C@@H](CCSC)C(=O)N[C@@H](CC(C)C)C(=O)N[C@@H](CC(=O)O)C(N)=O [CAPRIN1 364-379 Human] (Ac-AQMQGPYNFIQDSMLD-NH2) | – | – | 174 | 46 | –
CC(=O)N[C@@H](C)C(=O)N1CCC[C@H]1C(=O)N[C@@H](CCCNC(=N)N)C(=O)N[C@@H](C)C(=O)N[C@H](C(=O)N[C@H](C(=O)N[C@@H](Cc1ccccc1)C(=O)NCC(=O)N[C@@H](CC(=O)O)C(=O)N[C@@H](CC(N)=O)C(=O)N[C@@H](CC(N)=O)C(=O)N[C@@H](CC(=O)O)C(=O)N[C@@H](CC(N)=O)C(=O)N[C@@H](CC(N)=O)C(=O)N[C@H](C(=O)N[C@@H](Cc1ccc(O)cc1)C(N)=O)[C@@H](C)O)[C@@H](C)O)C(C)C [N 6-20 Mers1] (Ac-APRAVTFGDNNDNNTY-NH2) | – | 51 | 26 | – | Kd [2]: 51 ± 2 µM; Ki [1]: 26 µM
CC[C@H](C)[C@H](NC(=O)[C@H](CCSC)NC(=O)[C@H](CO)NC(C)=O)C(=O)N[C@@H](CCC(=O)O)C(=O)N[C@@H](CC(=O)O)C(=O)N[C@H](C(=O)N[C@@H](CC(=O)O)C(=O)N[C@@H](Cc1ccc(O)cc1)C(=O)N[C@H](C(=O)N1CCC[C@H]1C(=O)N[C@@H](CC(C)C)C(=O)N[C@@H](CCCCN)C(=O)N[C@@H](CO)C(=O)N[C@@H](C)C(=O)N[C@H](C(N)=O)C(C)C)C(C)C)[C@@H](C)CC [NSP14 6498-6512 Mers] | – | – | – | – | Kd [3]: 3 ± 0.1 µM; Ki [3]: 3 µM
CC(=O)N1CCC[C@H]1C(=O)N[C@@H](CO)C(=O)N[C@@H](CCCCN)C(=O)N[C@@H](CC(C)C)C(=O)N1CCC[C@H]1C(=O)N[C@H](C(=O)N[C@@H](Cc1ccccc1)C(=O)NCC(=O)N[C@@H](C)C(=O)N1CCC[C@H]1C(=O)N[C@@H](CCC(=O)O)C(=O)N[C@@H](CCC(N)=O)C(=O)N[C@@H](CC(C)C)C(=O)N[C@H](C(=O)N[C@@H](CC(=O)O)C(=O)N[C@@H](Cc1ccc(O)cc1)C(N)=O)C(C)C)[C@@H](C)O [TRIM25 400-414 Human] (Ac-PSKLPTFGAPEQLVDY-NH2) | 53 | 46 | 46 | – | –
CC[C@H](C)[C@H](NC(=O)[C@@H]1CCCN1C(=O)[C@@H]1CCCN1C(=O)[C@@H](NC(=O)[C@@H]1CCCN1C(C)=O)C(C)C)C(=O)N[C@@H](CCC(=O)O)C(=O)N[C@@H](Cc1ccccc1)C(=O)NCC(=O)N[C@H](C(=O)N[C@@H](CO)C(=O)N1CCC[C@H]1C(=O)N[C@@H](CCCCN)C(=O)N[C@@H](CC(=O)O)C(=O)N[C@@H](CO)C(=O)N[C@@H](CC(=O)O)C(=O)N[C@@H](Cc1ccc(O)cc1)C(N)=O)C(C)C [PRRC2B 1780-1794 Human] (Ac-PVPPIEFGVSPKDSDY-NH2) | 53 | 10 | 10 | 33 | –
CC(C)C[C@H](NC(=O)[C@@H](NC(=O)[C@H](CCC(=O)O)NC(=O)[C@H](Cc1ccccc1)NC(=O)[C@H](CO)NC(=O)[C@H](CC(N)=O)NC(=O)[C@H](CO)NC(=O)[C@@H](NC(=O)[C@H](CC(=O)O)NC(=O)[C@@H](N)C(C)C)[C@@H](C)O)C(C)C)C(=O)N[C@@H](C)C(=O)N[C@H](C(=O)N[C@@H](CCC(=O)O)C(=O)N[C@@H](CC(=O)O)C(=O)N[C@H](C(=O)N[C@@H](CCC(N)=O)C(=O)N[C@@H](Cc1ccc(O)cc1)C(=O)O)[C@@H](C)O)C(C)C [NSP3 1996-2011 Sars-CoV] | – | – | – | – | IC50 [4]: 200 µM; Kd [4]: 28 ± 1 µM; Ki [4]: 28 µM; IC50 [5]: 210 µM; Kd [5]: 29 ± 2 µM; Ki [5]: 29 µM
CC[C@H](C)[C@H](NC(=O)CNC(=O)[C@H](CO)NC(=O)[C@H](C)NC(=O)[C@H](CC(C)C)NC(=O)[C@H](C)NC(=O)[C@H](CC(=O)O)NC(=O)[C@@H](NC(=O)[C@H](CCC(=O)O)NC(=O)[C@H](Cc1c[nH]cn1)NC(=O)[C@H](CCC(=O)O)NC(=O)[C@H](CC(=O)O)NC(=O)[C@H](Cc1ccccc1)NC(=O)[C@H](CC(=O)O)NC(=O)CNC(=O)[C@H](Cc1ccccc1)NC(=O)[C@@H](NC(=O)[C@H](CC(C)C)NC(C)=O)[C@@H](C)O)C(C)C)C(=O)N[C@H](C(=O)N[C@@H](Cc1ccccc1)C(=O)NCC(=O)N[C@@H](CC(=O)O)C(=O)N[C@@H](Cc1ccccc1)C(=O)N[C@@H](CC(=O)O)C(=O)N[C@@H](CC(=O)O)C(=O)N[C@@H](Cc1ccc(O)cc1)C(N)=O)[C@@H](C)O [NSP3 1785-1809 SFV] | – | 0.3 | – | – | Kd [2]: 0.3 µM; binds stronger than the SARS-CoV-2 N peptide to both G3BP1 and G3BP2 (fold) [2]: approximately 10 fold; Ki [1]: 0.15 µM
CC(=O)N[C@@H](CC(C)C)C(=O)N[C@H](C(=O)N[C@@H](Cc1ccccc1)C(=O)NCC(=O)N[C@@H](CC(=O)O)C(=O)N[C@@H](Cc1ccccc1)C(=O)N[C@@H](CC(=O)O)C(=O)N[C@@H](CCC(=O)O)C(=O)N[C@@H](Cc1c[nH]cn1)C(=O)N[C@@H](CCC(=O)O)C(=O)N[C@H](C(=O)N[C@@H](CC(=O)O)C(=O)N[C@@H](Cc1ccc(O)cc1)C(N)=O)C(C)C)[C@@H](C)O [NSP3 1785-1796 SFV] | 13 | – | – | 23 | –
CC(=O)N[C@@H](CCC(=O)O)C(=O)N[C@@H](CO)C(=O)N[C@@H](CC(C)C)C(=O)N1CCC[C@H]1C(=O)N[C@@H](Cc1ccccc1)C(=O)N[C@@H](CO)C(=O)N[C@@H](Cc1ccccc1)C(=O)NCC(=O)N[C@H](C(=O)N[C@@H](CC(C)C)C(=O)N[C@@H](CO)C(=O)N[C@@H](CO)C(=O)N[C@@H](Cc1c[nH]c2ccccc12)C(=O)N[C@@H](CCC(=O)O)C(=O)N[C@@H](CC(C)C)C(=O)N[C@@H](CCC(=O)O)C(=O)O)[C@@H](C)O [DDIT3 4-19 Human] (Ac-ESLPFSFGTLSSWELE-OH) | – | 14 | 14 | 44 | –
CC(=O)N[C@@H](CCC(N)=O)C(=O)NCC(=O)N[C@@H](CC(C)C)C(=O)N1CCC[C@H]1C(=O)N[C@@H](CC(C)C)C(=O)N[C@@H](CCC(=O)O)C(=O)N[C@@H](Cc1ccccc1)C(=O)NCC(=O)N[C@@H](C)C(=O)N[C@@H](CO)C(=O)N[C@@H](C)C(=O)N[C@@H](CCC(=O)O)C(=O)N[C@H](C(=O)N[C@H](C(=O)N[C@@H](CCCNC(=N)N)C(=O)N[C@@H](Cc1ccc(O)cc1)C(N)=O)C(C)C)[C@@H](C)O [NSP3 958-972 Sars-CoV] | – | 119 | 47 ± 2 | – | Kd [2]: 119 ± 5 µM; Ki [1]: 47 µM
CC[C@H](C)[C@H](NC(=O)[C@H](CCCNC(=N)N)NC(=O)[C@@H]1CCCN1C(=O)[C@H](C)NC(C)=O)C(=O)N[C@H](C(=O)N[C@@H](Cc1ccccc1)C(=O)NCC(=O)NCC(=O)N1CCC[C@H]1C(=O)N[C@@H](CO)C(=O)N[C@@H](CC(=O)O)C(=O)N[C@@H](CO)C(=O)N[C@H](C(=O)NCC(=O)N[C@@H](CO)C(=O)N[C@@H](Cc1ccc(O)cc1)C(N)=O)[C@@H](C)O)[C@@H](C)O [N 12-26 Sars-CoV2] (Ac-APRITFGGPSDSTGSY-NH2) | 10 | 4 | – | 17 | Kd [2]: 4 µM
CC[C@H](C)[C@H](NC(=O)[C@H](CCCNC(=N)N)NC(=O)[C@@H]1CCCN1C(=O)[C@H](C)NC(C)=O)C(=O)N[C@H](C(=O)N[C@@H](Cc1ccccc1)C(=O)NCC(=O)NCC(=O)N1CCC[C@H]1C(=O)N[C@H](C(=O)N[C@@H](CC(=O)O)C(=O)N[C@@H](CO)C(=O)N[C@H](C(=O)N[C@@H](CC(=O)O)C(=O)N[C@@H](CC(N)=O)C(=O)N[C@@H](Cc1ccc(O)cc1)C(N)=O)[C@@H](C)O)[C@@H](C)O)[C@@H](C)O [N 13-27 Sars-CoV] (Ac-APRITFGGPTDSTDNY-NH2) | – | – | – | 10 | –
